In patent publication US12458605B2, “Lipid nanoparticle” (National University Corporation Hokkaido University, priority 2020, dated 2025):

What was measured:
[1] = Zeta potential in 10 mM HEPES buffer (pH 7.4); assay type: physicochemical
Procedure: The average particle size (number-average value) and PDI in PBS(−) and zeta potential in 10 mM HEPES buffer solution (pH 7.4) of lipid nanoparticles were measured using “Zetasizer Nano ZS ZEN3600”, an analyzer utilizing dynamic light scattering (manufactured by Malvern).

F7 = assay: In vivo F7 knockdown, plasma F7 enzyme activity (BIOPHEN FVII), Balb/c mice; settings: i.v. 0.025 mg siRNA/kg, plasma at 24 hours
In short: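 Female Balb/c mice, 5 weeks old, received F7 siRNA lipid nanoparticles i.v. at 0.025 mg siRNA/kg; plasma F7 activity measured chromogenically (BIOPHEN FVII) 24 h later. Values are % of untreated mice, also expressed as a ratio to MC3-containing nanoparticles set at 1.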

spleen = assay: In vivo Fluc activity of FlucmRNA-loaded LNP by in vivo imaging, spleen; settings: Balb/c mice, FlucmRNA-loaded LNP i.v. 0.1 mg mRNA/kg, 6 hours
In short: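 Female Balb/c mice, 7 weeks old, received LNP i.v. at 0.1 mg mRNA/kg. At 6 h, luciferin was given via tail vein at 1.5 mg per mouse, and liver and spleen luminescence was imaged as Avg Radiance [p/s/cm2/sr] near 560 nm.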

[2] = NlucmRNA-loaded LNP, 60:10:40:1

ζ-potential (mV) [1, 2] | ζ-potential (mV) ([1]; pFluc-loaded LNP, N/P ratio 6) | ζ-potential (mV) ([1]; pFluc-loaded LNP, N/P ratio 9) | SMILES | F7 enzyme activity (%) (F7; untreated mice as 100%) | Fluc Activity in spleen (spleen) | F7 enzyme activity (Ratio using MC3 as 1) (F7; relative plasma F7 activity of MC3 LNP as 1)
−1.76 mV | −2.46 mV | −1.3 ± 0.7 mV | CCCN(CCC)CCCCC(O)(CCCCCCOC(=O)C(CCC(C)CC(C)(C)C)C(C)CC(C)(C)C)CCCCCCOC(=O)C(CCC(C)CC(C)(C)C)C(C)CC(C)(C)C (stereo not shown) [CL4G6, 7-(4-(dipropylamino)butyl)-7-hydroxytridecan-1,13-diyl bis(2-(4.4-dimethylpentan-2-yl)-5,7,7-trimethyloctanoate)] | 7.6% | 2.08E+06 Avg Radiance [p/s/cm2/sr] | 
−2.16 mV | −2.02 mV | −1.2 ± 0.4 mV | CCCCCCCCC(CCCCCC)C(=O)OCCCCCCC(O)(CCCCCCOC(=O)C(CCCCCC)CCCCCCCC)CCCCOC(=O)C1CCN(C)CC1 (stereo not shown) [CL15F6] |  | 5.76E+06 Avg Radiance [p/s/cm2/sr] | 1.52
